According to ChEMBL document CHEMBL1201862, “PubChem BioAssay data set” (2004):
Active and inactive are the calls of the source.

What was measured:
Vero = assay: Vero cell viability after compound exposure – synthesized analogs, set II, cytotoxicity control for West Nile virus antiviral project, SAR follow-up (AID 2402); assay type: functional; conditions: Chlorocebus sabaeus
[1] = A Cell Based Assay for the Identification of Probe candidate Compounds with Anti- Venezuelan Equine Encephalitis virus. [Related pubchem assays: 2409, 2419, 1621, 2238, 2405, 2024, 2065, 2402, 2414, 1635, 1650, 2244 ]; assay type: functional
[2] = viability of uninfected HEp-2 cells – cell-based, HTS, cytotoxicity control for RSV inhibitor project, dose response (AID 2410); assay type: functional; conditions: human respiratory syncytial virus
[3] = biological target: T1, Heat shock factor protein 1 (Mus musculus, UniProt P38532); assay: decrease of HSF1-responsive luciferase luminescence – cell-based, NIH3T3, dose retest, confirmation (AID 2382); assay type: functional;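 further: NIH3T3 fibroblasts with HSF1-driven luciferase reporter stressed by proteasome inhibitor MG132; luminescence from HSF1-driven luciferase expression after 8 hours of MG132 stress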
T1 sequence (P38532 whole entry): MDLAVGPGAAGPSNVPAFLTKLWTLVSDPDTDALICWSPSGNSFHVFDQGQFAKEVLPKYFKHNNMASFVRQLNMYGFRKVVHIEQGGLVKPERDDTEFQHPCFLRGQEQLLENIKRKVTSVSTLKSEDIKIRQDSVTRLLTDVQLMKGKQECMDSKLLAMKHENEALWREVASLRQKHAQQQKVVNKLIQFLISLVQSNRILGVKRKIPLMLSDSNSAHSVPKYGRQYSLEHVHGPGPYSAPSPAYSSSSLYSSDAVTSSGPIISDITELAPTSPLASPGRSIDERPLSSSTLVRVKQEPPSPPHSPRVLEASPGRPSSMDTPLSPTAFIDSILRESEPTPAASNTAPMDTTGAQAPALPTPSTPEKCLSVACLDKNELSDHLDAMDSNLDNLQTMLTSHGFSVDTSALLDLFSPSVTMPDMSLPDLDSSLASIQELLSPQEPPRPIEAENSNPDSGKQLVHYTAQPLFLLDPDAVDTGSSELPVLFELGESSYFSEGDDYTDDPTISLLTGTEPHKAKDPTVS

[4] = Counterscreen for IDE inhibitors: Luminescence-based cell-based high throughput dose response assay to identify compounds that are cytotoxic to HEK cells. [Related pubchem assays: 434962 (Primary screen (IDE inhibitors in singlicate)), 449730 (Counterscreen (Cytotoxicity in triplicate)), 435028 (Confirmation (IDE inhibitors in triplicate)) …; assay type: functional; conditions: HEK293
Large T antigen = Large T antigen (Simian virus 40, UniProt P03070); assay type: functional, Betapolyomavirus macacae;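 further: Confirmatory-stage PubChem screen for compounds that inhibit SV40 T antigen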
Large T antigen, sequence (P03070 whole entry): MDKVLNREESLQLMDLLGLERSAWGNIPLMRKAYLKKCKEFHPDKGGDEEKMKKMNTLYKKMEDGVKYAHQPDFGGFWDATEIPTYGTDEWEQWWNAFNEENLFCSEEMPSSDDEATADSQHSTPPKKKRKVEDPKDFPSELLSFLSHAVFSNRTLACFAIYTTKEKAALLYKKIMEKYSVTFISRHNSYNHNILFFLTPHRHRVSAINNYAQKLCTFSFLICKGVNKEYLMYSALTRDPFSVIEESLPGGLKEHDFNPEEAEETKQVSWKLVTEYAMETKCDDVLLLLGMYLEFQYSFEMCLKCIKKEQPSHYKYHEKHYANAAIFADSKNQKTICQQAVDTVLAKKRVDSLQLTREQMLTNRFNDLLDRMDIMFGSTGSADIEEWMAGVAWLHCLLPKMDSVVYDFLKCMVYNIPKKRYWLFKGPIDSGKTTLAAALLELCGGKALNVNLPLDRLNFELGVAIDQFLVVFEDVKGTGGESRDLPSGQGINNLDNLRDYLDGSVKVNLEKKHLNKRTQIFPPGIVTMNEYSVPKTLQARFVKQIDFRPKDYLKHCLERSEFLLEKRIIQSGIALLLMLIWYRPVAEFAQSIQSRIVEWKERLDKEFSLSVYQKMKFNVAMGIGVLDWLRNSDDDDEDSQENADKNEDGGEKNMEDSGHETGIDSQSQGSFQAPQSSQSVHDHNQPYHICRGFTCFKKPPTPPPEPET

Insulin-degrading enzyme = biological target: T2, Insulin-degrading enzyme (Homo sapiens, UniProt P14735); assay: Dose Response: Fluorescence polarization-based cell-based high throughput dose response assay for inhibitors of insulin-degrading enzyme (IDE). [Related pubchem assays: 434962 (Primary screen (IDE inhibitors in singlicate)), 449730 (Counterscreen (Cytotoxicity in triplicate)), 435028 (Confirmation (IDE inhibitors in triplicate)), 434984 (Summary …; assay type: functional
T2 sequence (P14735 whole entry): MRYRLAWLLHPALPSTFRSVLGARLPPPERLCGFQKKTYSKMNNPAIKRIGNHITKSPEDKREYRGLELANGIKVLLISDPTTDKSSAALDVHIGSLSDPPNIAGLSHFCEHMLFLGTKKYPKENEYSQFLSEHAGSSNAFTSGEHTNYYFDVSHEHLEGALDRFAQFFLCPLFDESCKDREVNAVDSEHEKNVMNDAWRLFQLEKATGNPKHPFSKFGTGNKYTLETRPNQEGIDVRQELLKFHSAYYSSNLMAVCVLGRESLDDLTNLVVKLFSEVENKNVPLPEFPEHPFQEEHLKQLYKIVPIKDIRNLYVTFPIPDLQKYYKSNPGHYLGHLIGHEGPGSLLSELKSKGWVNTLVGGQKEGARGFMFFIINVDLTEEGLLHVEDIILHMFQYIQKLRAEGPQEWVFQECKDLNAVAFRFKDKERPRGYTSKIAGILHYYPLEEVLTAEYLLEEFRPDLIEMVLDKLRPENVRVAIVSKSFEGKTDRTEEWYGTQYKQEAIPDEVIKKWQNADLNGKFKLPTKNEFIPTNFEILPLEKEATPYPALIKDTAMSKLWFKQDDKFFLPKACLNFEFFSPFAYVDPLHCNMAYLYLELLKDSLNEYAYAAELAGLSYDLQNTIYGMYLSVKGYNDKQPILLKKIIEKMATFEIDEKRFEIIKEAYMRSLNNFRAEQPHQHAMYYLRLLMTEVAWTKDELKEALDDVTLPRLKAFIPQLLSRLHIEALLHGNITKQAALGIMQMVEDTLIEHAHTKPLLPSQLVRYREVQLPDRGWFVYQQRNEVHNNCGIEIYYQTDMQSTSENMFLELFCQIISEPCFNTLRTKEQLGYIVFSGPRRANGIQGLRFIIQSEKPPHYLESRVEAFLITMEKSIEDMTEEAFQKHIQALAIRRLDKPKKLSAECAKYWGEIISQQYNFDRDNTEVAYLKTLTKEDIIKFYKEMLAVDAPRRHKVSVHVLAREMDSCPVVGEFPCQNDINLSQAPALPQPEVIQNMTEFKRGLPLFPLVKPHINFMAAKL

## COc1ccc(Cn2nc(C)cc2OC(=O)c2c(F)ccc(C)c2F)cc1
Vero
  CC50: > 200 µM (active)
[1]
  IC50: 131 µM (active)

## COc1ccc(C(=O)N/C(=C\c2cccs2)c2nc3ccccc3[nH]2)cc1OC
[2]
  CC50: > 50 µM (active)
[3]
  EC50: > 195 µM (not active)
cells
  IC50: 25.6 µM (active)

## COc1cc(-c2cc(=O)c3ccccc3o2)ccc1O
[4]
  IC50: > 55.6 µM (not active)
Large T antigen
  IC50: 9.46 µM (active)
Insulin-degrading enzyme
  IC50: > 6.21 µM (active)
